Source: publication PMC11480411, “Mucosal sugars delineate pyrazine vs pyrazinone autoinducer signaling in Klebsiella oxytoca” (Nature Communications, 2024)

Test system: leup operon (leupeptin BGC) promoter in K. oxytoca ATCC 8724
Assay: GFP-based transcriptional reporter for the leup operon
Format: cell-based, Klebsiella oxytoca
Details: carbohydrate screen, M9 + casamino acid + 0.4% indicated sugar, 30 °C, 24 h; for GFP fluorescence, GFP Strain + Media: leup GFP reporter strain; for GFP fluorescence, WT + Media: wildtype K. oxytoca without reporter (background)
Text: We previously examined a panel of 84 clinical K. oxytoca isolates (including recently renamed Klebsiella michiganensis isolates) for the presence of either the leup operon or npsB, an NRPS of the tilimycin/tilivalline gene cluster. […] While the roles of tilivalline and tilimycin in hemorrhagic colitis are well studied[8],[9], the operon for leupeptin biosynthesis is “silent” in K. oxytoca under typical laboratory culture conditions (i.e., leupeptin production is undetectable). Therefore, our study commenced by exploring growth conditions required to trigger leupeptin biosynthesis in K. oxytoca. To achieve this, we generated a green fluorescent protein (GFP)-based reporter system to monitor leup transcription in K. oxytoca ATCC 8724 (recently renamed as Klebsiella michiganensis (ATCC 8724), Fig. 1a). We utilized λ-red recombineering techniques[38] to replace the first biosynthetic gene (leupA) of the leupeptin BGC with a GFP-spectinomycin resistance cassette. […] Consequently, conditions that elicit transcription of the leupeptin BGC can be monitored by GFP fluorescence intensity.
5 mL of the leupeptin reporter strain was cultured aerobically in 10 g/L of LB (Becton Dickinson), yeast extract, GAM (HiMedia Laboratories), horse liver extract (HiMedia Laboratories), malt extract (VWR), meat extract (HiMedia Laboratories), YPD (Dot Scienticifc), brain heart infusion (Becton Dickinson), porcine mucin (Sigma-Aldrich, M1778), clostridial (Becton Dickinson), TSB (VWR), or casamino acid supplemented (5 g/L, VWR) M9 minimal salts (MP Biomedicals) at 30 °C for 24 h at 250 rpm. Cultures were lysed via sonication, centrifuged, and 150 µL of the supernatants were aliquoted into black well clear bottom 96 well plates. GFP fluorescence measurements were performed on a BioTek Synergy H1 plate reader with an excitation wavelength of 488 nm and an emission wavelength of 525 nm. For the carbohydrate screen, the leupeptin reporter strain was cultured in M9 minimal medium (MPbio) supplemented with casamino acid (5 g/L, VWR) and 0.4% indicated sugar aerobically at 30 °C for 24 h at 250 rpm.

Compound	GFP fluorescence, GFP Strain + Media [RFU]	GFP fluorescence, WT + Media [RFU]
OC[C@H]1O[C@@H](O[C@H]2[C@H](O)[C@@H](O)C(O)O[C@@H]2CO)[C@H](O)[C@@H](O)[C@H]1O (mixture of isomers) [Lactose]	5276	4982
O[C@@H]1[C@@H](O)[C@@H](O)CO[C@H]1O [Arabinose]	9484	6365
O=C(CO)[C@@H](O)[C@H](O)[C@H](O)CO [Fructose]	9618	6828
CC(=O)N[C@H]1C(O)O[C@H](CO)[C@H](O)[C@@H]1O (stereo partly drawn) [GalNAc]	9643	8779
O=C[C@H](O)[C@@H](O)[C@@H](O)[C@H](O)CO [Galactose]	9159	6849
CC(=O)N[C@@H]1[C@@H](O)[C@H](O)[C@@H](CO)O[C@H]1O [GlcNAc]	9678	5235
